Common to all, as to type: cell-based
In one experiment the test system is A549. The experiment can be described thus: MTT cell viability, A549. Particulars: Homo sapiens, 96 h; Adenocarcinoma lung cell line A549; 4 days incubation. The protocol:
(§1) The ability of the flurbiprofen analog compounds of the invention to inhibit cancer cell growth and survival (viability) in a variety of cancer lines was examined in a standard MTT assay for cell viability, as detailed in Example 2.
(§2) The studies reported in Tables 1-3 above were carried out by incubating the cells in the test compound for four days, under standard cell-culture conditions, and measuring cell survival on day 5 (see Example 2).
(§3) Cell growth and survival following treatment with N—[(S)-2-Fluoro-α-methyl-4-biphenylacetyl]-[L-(4-phenylphenyl)alanine]-N-(2,2,6,6-tetramethyl-4-piperidinyl)amide (GCBH-110=B1031; (S)-Fmba-L-Bip-Atmp) were measured by a rapid colorimetric assay based on the tetrazolium salt MTT (3-(4,5-dimethylthiazol-2-yl)-2,5-diphenyl tetrazolium bromide) (Mosmann, J. Immunol. Methods 65: 55-63, 1983, with minor modifications).
(§4) Briefly, approximately 1,000-5,000 cancer cells from 15 different cancer cells lines were plated in 100 μL of growth medium in 96-well flat-bottomed microtiter plates. Cells were incubated overnight to allow recovery. Compounds to be tested were added to the cells in triplicate in a range of concentrations and the cells were incubated at 37° C., 5% CO2, with 100% humidity. Control cells were treated in the same way without antagonists. […] Absorbance was immediately determined using a scanning multiwell plate reader.

The next experiment has as its system H322C. The experiment can be described thus: MTT cell viability, H322C. Particulars: 96 h; Adenocarcinoma lung cell line H322C; 4 days incubation. The protocol: as §1, §2, §3, §4
Another experiment has as its system H322C1. The experiment can be described thus: MTT cell viability, H322C1. As to conditions: 96 h; Adenocarcinoma lung cell line H322C1; 4 days incubation. How it is done:
as §1, §2, §3, §4

For another experiment, the system named is H3225. The experiment can be described thus: MTT cell viability, H3225. As to conditions: 96 h; Adenocarcinoma lung cell line H3225; 4 days incubation. The protocol: as §1, §2, §3, §4
In another experiment the test system is H1264. The experiment can be described thus: MTT cell viability, H1264. Particulars: 96 h; Adenosquamous lung cell line H1264; 4 days incubation. The protocol: as §1, §2, §3, §4
For another experiment, the system named is H1334. The experiment can be described thus: MTT cell viability, H1334. As to conditions: 96 h; Large Cell lung cell line H1334; 4 days incubation. How it is done:
as §1, §2, §3, §4

For a further experiment, the system named is H290. The experiment can be described thus: MTT cell viability, H290. As to conditions: NCI-H290, 96 h; Mesothelioma lung cell line H290; 4 days incubation. The protocol:
as §1, §2, §3, §4

Another experiment relates to H719. The experiment can be described thus: MTT cell viability, H719. As to conditions: 96 h; SCLC lung cell line H719; 4 days incubation. How it is done: as §1, §2, §3, §4
Another experiment deals with UMSCC22B. The experiment can be described thus: MTT cell viability, UMSCC22B. As to conditions: Homo sapiens; Head and neck cancer cell line UMSCC22B. The protocol: as §1
(§5) A similar study was conducted on 14 […] cancer cell lines, identified in Table 2.
as §3
(§6) Briefly, approximately 1,000-5,000 cancer cells from 15 different cancer cells lines were plated in 100 μL of growth medium in 96-well flat-bottomed microtiter plates. Cells were incubated overnight to allow recovery. Compounds to be tested were added to the cells in triplicate in a range of concentrations and the cells were incubated at 37° C., 5% CO2, with 100% humidity. Control cells were treated in the same way without antagonists. […] Plates were incubated for 4 days, allowing sufficient time for cell replication and compound-induced cell death to occur. […] Absorbance was immediately determined using a scanning multiwell plate reader. […]

Another experiment deals with 1483. The experiment can be described thus: MTT cell viability, 1483. Particulars: Head and neck cancer cell line 1483. How it is done:
as §1, §5, §3, §6

In another experiment the test system is MSK922. The experiment can be described thus: MTT cell viability, MSK922. As to conditions: Head and neck cancer cell line MSK922. How it is done:
as §1, §5, §3, §6

The subject of the next experiment is Panc-504. The experiment can be described thus: MTT cell viability, Panc-504. As to conditions: Pancreatic cancer cell, 96 h; Pancreatic cancer cells Panc-504; 4 days incubation.
Source text: as §1
(§7) Similar results were obtained for the effect of the B1031 compound on the 14 pancreatic tumor cells lines shown in Table 3 below, where the dose dependent effect of the compound on survival of the pancreatic cancer cell lines is shown in FIG. 5.
as §2, §3
(§8) Briefly, approximately 1,000-5,000 cancer cells from 15 different cancer cells lines were plated in 100 μL of growth medium in 96-well flat-bottomed microtiter plates. Cells were incubated overnight to allow recovery. […] Absorbance was immediately determined using a scanning multiwell plate reader.

For the next experiment, the system named is L33. The experiment can be described thus: MTT cell viability, L33. Particulars: Pancreatic cancer cell, 96 h; Pancreatic cancer cells L33; 4 days incubation.
Source text: as §1, §7, §2, §3, §8

The next experiment concerns Panc-1005. The experiment can be described thus: MTT cell viability, Panc-1005. Particulars: Homo sapiens, Panc1005, 96 h; Pancreatic cancer cells Panc-1005; 4 days incubation.
Source text: as §1, §7, §2, §3, §8

The test system of another experiment is MiaPaCa. The experiment can be described thus: MTT cell viability, MiaPaCa. Particulars: Homo sapiens, MIA PaCa-2, 96 h; Pancreatic cancer cells MiaPaCa; 4 days incubation.
Source text: as §1, §7, §2, §3, §8

In the next experiment the test system is Panc-1. The experiment can be described thus: MTT cell viability, Panc-1. As to conditions: Homo sapiens, 96 h; Pancreatic cancer cells Panc-1; 4 days incubation.
Source text: as §1, §7, §2, §3, §8

Experiment [1] deals with pancreatic cancer cell lines. The experiment can be described thus: MTT cell viability, panel of pancreatic cancer cell lines.
Source text: as §1, §7, §3
Briefly, approximately 1,000-5,000 cancer cells from 15 different cancer cells lines were plated in 100 μL of growth medium in 96-well flat-bottomed microtiter plates. Cells were incubated overnight to allow recovery. Compounds to be tested were added to the cells in triplicate in a range of concentrations and the cells were incubated at 37° C., 5% CO2, with 100% humidity. […] Absorbance was immediately determined using a scanning multiwell plate reader.

In experiment [2] the test system is BTIC EF12 brain tumor initiating stem cells. The experiment can be described thus: Inhibition of BTIC EF12 brain tumor initiating stem cells. Particulars: at 10 μM, FIG. 6B. The protocol: FIGS. 6A and 6B show the loss in cell viability in HT-29 colon cancer cells, in response to increasing concentrations of GH 502 (GCBH 118) (FIG. 6A), and the effect of various treatments, including increasing concentration of GH501 (GCBH 110) on U251 malignant glioma cells and BTIC EF12 brain tumor initiating stem cells (FIG. 6B).
The study shown in FIG. 6A examined the effect of GCBH-118 (GH502) on an HT-29 colon cancer cell, showing an IC50 value of about 1 μM. […] The graph indicates an IC50 value for the B1031 compound against the U251 brain cancer cell line of between 2 and 10 μM.

For the next experiment, the system named is H2122 cells. The experiment can be described thus: Cell cycle phase distribution in H2122 cells. Particulars: six concentrations, 24, 48 and 72 hours, FIG. 10. The protocol: FIG. 10 is a plot showing the percentages of H122 cells G1, S, and G2 cycle at […], and 72 hours, as a function of B1031 concentration in the cell medium.
FIG. 10 provides an explanation of the time-dependent IC50 values observed in FIG. 7, and insight into the mechanism by which the compounds of the invention exert their anti-cancer effect. In the study shown in FIG. 10, H2122 cells were cultured in the presence of one of the six concentrations of the B1031 compound, as indicated in the figure. At time periods 24, 48, and 72 hours after incubation with the compound, cells from each of the six cultures (having increasing concentrations of the compound), were examined for percent cells in G1, S, or G2 cell phase.

Like-named read-outs stand apart in the source and are kept apart here.

The IC50 is the point on the concentration scale where inhibition reaches its midpoint. In the case of `C[C@H](C(=O)N[C@@H](Cc1ccc(-c2ccccc2)cc1)C(=O)NC1CC(C)(C)NC(C)(C)C1)c1ccc(-c2ccccc2)c(F)c1` [GCBH-110, N—[(S)-2-Fluoro-α-methyl-4-biphenylacetyl]-[L-(4-phenylphenyl)alanine]-N-(2,2,6,6-tetramethyl-4-piperidinyl)amide], the IC50 in the experiment on A549 is 550 nM; in the experiment with H322C, 450 nM; in the experiment on H322C1 it was 130 nM; in the experiment on H3225, 1100 nM; in the experiment on H1264, 630 nM; in the experiment with H1334 it was 400 nM. The concentration for half-maximal inhibition (IC50) amounted to 1300 nM in the experiment on H290; 1080 nM with H719; 300 nM in the experiment on UMSCC22B; 300 nM in the experiment with 1483; 410 nM in the experiment on MSK922; 160 nM in the experiment with Panc-504. Also, the IC50 was 700 nM with L33; 700 nM with Panc-1005; 740 nM with MiaPaCa; 810 nM with Panc-1; no more than 700 nM in [1] (majority of the pancreatic cell lines, read-out: IC50, majority of the cell lines); 160 to 3100 nM in experiment [1] (span over 14 pancreatic tumor cell lines, Table 3, FIG. 5, read-out: IC50 values). The “compound inhibition of the BTIC EF12 cells” value in experiment [2] is reported as “inhibition”. Also, the “percent cells in G1, S, or G2 cell phase” value in the experiment on H2122 cells was “marked shift of the cell populations away from the S and G2 phases to the G1 phase”.

The values above are taken from patent US8575170B2, “Flurbiprofen analogs and methods of use in treating cancer” (The Regents of the Unversity of Colorado, a body corporate, priority 2010, dated 2013).
